Measured values from patent US20240108634A1, “COMPOSITIONS AND METHODS FOR INHIBITING YAP” (The United States Government as represented by the …, priority 2021, published 2024).

Assays:
full-length human YAP1 = target: T1, full-length human YAP1 (Homo sapiens, UniProt P46937); test: Inhibitor-coupled bead binding of recombinant HA-tagged YAP; conditions: immunoblot of bound HA-YAP
T1 construct: purified recombinant HA-tagged full-length human YAP1; made in house
Protocol: FIGS. 1A-G show the identification of a YAP1-TEAD1 binding interface inhibitor. […] The Gal4 DBD was fused to residues 50-171 of human YAP1 and the Gal4 AD was fused to residues 194-411 of human TEAD1. These fusions were expressed in yeast containing reporters harboring Gal4 upstream activating sequences (UAS). […] Yeast expressing either p53-DBD and SV40 large T antigen-AD fusions or YAP1-DBD and TEAD1-AD fusions were plated on selective media. Compounds were pinned onto the plate surfaces by robotic transfer and subsequently examined for halo formation (indicated by red circles). […] Pull-down products were analyzed by SDS-PAGE and silver staining. […] Raw binding sensorgrams obtained at each concentration were fitted to a 1:1 binding model and Kon, Koff and KD were calculated by simultaneous non-linear regression analyses.
Protein and mRNA analyses, immunoprecipitation, in vitro bead-coupled inhibitor binding assays and HPLC analyses. […] Antigen-antibody complexes were detected using appropriate horseradish peroxidase-conjugated secondary antibodies (GE Healthcare) and enhanced chemiluminescence (Amersham ECL Prime). […] For quantitative RT-PCR, extraction of RNA was performed using Trizol® (Life Technologies). Total RNA was then quantified and integrity assessed using an Agilent 2100 Bioanalyzer (Agilent Technology). […]

YAP-TEAD interaction = target: T2, YAP-TEAD interaction (Homo sapiens, UniProt P46937); test: Co-immunoprecipitation of myc-TEAD with HA-YAP from treated LN229 cells; type: cell-based; conditions: LN229 cells, 24 h
T2 construct: expressed in transfected cells; host or cells: LN229
Protocol: FIGS. 1A-G show the identification of a YAP1-TEAD1 binding interface inhibitor. […] The Gal4 DBD was fused to residues 50-171 of human YAP1 and the Gal4 AD was fused to residues 194-411 of human TEAD1. These fusions were expressed in yeast containing reporters harboring Gal4 upstream activating sequences (UAS). […] Yeast expressing either p53-DBD and SV40 large T antigen-AD fusions or YAP1-DBD and TEAD1-AD fusions were plated on selective media. Compounds were pinned onto the plate surfaces by robotic transfer and subsequently examined for halo formation (indicated by red circles). Compounds inhibiting YAP1-TEAD1 mediated growth on selective media while having no effect on p53-T antigen mediated yeast growth were considered specific. Compounds which blocked the growth of both strains were considered nonspecific and were classified as having general antifungal properties. […] His-tagged YAP (amino acids 50-171 of Accession No. NP_006097) was used in a GST pull-down assay using GST-TEAD (amino acids 194-411 of Accession No. NP_068780) immobilized on glutathione resin. Pull-down products were analyzed by SDS-PAGE and silver staining. […] Cells treated with antimycin A are shown as a negative control. […] Raw binding sensorgrams obtained at each concentration were fitted to a 1:1 binding model and Kon, Koff and KD were calculated by simultaneous non-linear regression analyses.
Protein and mRNA analyses, immunoprecipitation, in vitro bead-coupled inhibitor binding assays and HPLC analyses. […] Antigen-antibody complexes were detected using appropriate horseradish peroxidase-conjugated secondary antibodies (GE Healthcare) and enhanced chemiluminescence (Amersham ECL Prime). […] For quantitative RT-PCR, extraction of RNA was performed using Trizol® (Life Technologies). Total RNA was then quantified and integrity assessed using an Agilent 2100 Bioanalyzer (Agilent Technology). […] SYBR® Green quantitative PCR (Millipore Sigma) was performed in triplicate in 96-well optical plates on an ABI Prism 7000 Sequence Detection System (Life Technologies) according to the manufacturer's instructions. […]

T2 sequence (P46937 whole entry): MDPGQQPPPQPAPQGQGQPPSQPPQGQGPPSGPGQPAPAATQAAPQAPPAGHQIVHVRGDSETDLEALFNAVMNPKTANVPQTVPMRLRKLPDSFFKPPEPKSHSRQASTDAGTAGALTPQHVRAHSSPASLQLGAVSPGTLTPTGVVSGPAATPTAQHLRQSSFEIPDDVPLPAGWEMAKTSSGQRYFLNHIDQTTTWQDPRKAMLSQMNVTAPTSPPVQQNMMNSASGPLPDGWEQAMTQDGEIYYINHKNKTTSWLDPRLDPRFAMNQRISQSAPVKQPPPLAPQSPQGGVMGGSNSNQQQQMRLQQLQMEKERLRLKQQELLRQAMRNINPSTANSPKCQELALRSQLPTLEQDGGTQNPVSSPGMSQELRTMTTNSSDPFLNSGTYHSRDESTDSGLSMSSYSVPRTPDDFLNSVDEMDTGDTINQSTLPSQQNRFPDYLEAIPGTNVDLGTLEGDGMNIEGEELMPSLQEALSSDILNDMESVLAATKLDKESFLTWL
T1 sequence (P46937 whole entry): as above

Compound | Binding of YAP to compound-coupled beads (full-length human YAP1) | Cell treatment concentration required for observable blockade of the interaction (YAP-TEAD interaction) [µM] | Inhibition of HA-YAP/myc-TEAD interaction at equimolar concentrations (YAP-TEAD interaction; equimolar to NSC682769)
COc1ccc(CN2C(=O)c3ccccc3C2=O)c(OC)c1 [IRES-J007, reference compound] | no significant binding | – | –
verteporfin | – | 4 | ineffective
